Literature values as cited in US20100012894A1, “Tooth Whitening Compositions and Methods” (priority 2008, published 2010).

Conditions: at six months; concentrations 16%-18% carbamide peroxide (Brunton et al., 2004)

In the case of NC(N)=O.OO [carbamide peroxide], the rebound is given as 40 % of patients.
